EC50 and IC50 data for 14 molecules are collected here from patent US20240400591A1 (Jacobio Pharmaceuticals Co., Ltd., priority 2021, published 2024).

The EC50 is the concentration at which the effect is half-maximal. As a reminder, the IC50 is the concentration at which inhibition is half-maximal.

Where two headings read alike, the source gives them in different places.

Assay [1] deals with T1, His-p53 Y220C (94-294) protein (Homo sapiens, UniProt P04637, Y220C).
T1 construct: His-p53 Y220C (94-294) protein
Put plainly: In vitro DNA binding assay (HTRF). To be noted: % activation normalized to 2 μM Ref-1a high control. It is filed as biochemical. For orientation: In TR-FRET formats the signal depends on donor and acceptor labels being close together.

A further assay has as its system NUGC3 (P53 Y220C). Put plainly: Cell viability assay (CellTiter-Glo, 6 days), NUGC3. The format is cell-based. The note with it: cell viability, 6 days, CellTiter-Glo, read-out: NUGC3 (P53 Y220C) IC50. The method, then:
(§1) Cells were collected and counted. A desired number of cells was seeded into 96-well microplate and cultured in 37° C. cell incubator overnight. Compounds dissolved in cell culture medium were added into cell plate and cultured for 6 days. After balancing CellTiter-Glo reagent and cells at room temperature for 30 min, equal volume of CellTiter-Glo reagents was added to assay plate and shaken for 2 min for cell lysis. The cells were balanced at room temperature for 10 minutes and Luminescence signal was read using Envision. The percent of cell viability for compounds treated wells were normalized between High control and low control. Wells containing cell culture medium and same percentage DMSO sewved as Low control. Wells containing cells and same percentage DMSO sewved as High control. Cell viability (%)=(Luminescence readoutCompound treated−Luminescence readoutLow control)/(Luminescence readoutHigh control−Luminescence readoutLow control)*100%. Then the data were analyzed either by fitting a 4-parameter logistic model or by Excel to calculate IC50 values. And the IC50 was the concentration at 50% Cell viability on the curve.
Background: ATP-based viability assays read luminescence as a measure of living cells.

Another assay concerns NUGC4 (P53 WT). The experiment in a line: Cell viability assay (CellTiter-Glo, 6 days), NUGC4. The note with it: cell viability, 6 days, CellTiter-Glo, read-out: NUGC4 (P53 WT) IC50. It is filed as cell-based. How it is done: as §1
In assay [2] the test system is NUGC-3_P53_Luc single clonal cell line (p53 Y220C). The experiment in a line: Reporter gene assay (p53 RE luciferase). It is filed as cell-based. The note with it: Homo sapiens, luciferase reporter, 6 hours, normalized to Ref-1a (10 μM) high control, read-out: p53(Y220C)_NUGC-3 EC50. How it is done:
NUGC-3_P53_Luc single clonal cell line was established using pGL4.38[luc2P/p53 RE/Hygro] Vector (E365A, promega). NUGC-3_P53-Luc single clonal cells were cultured in 37° C. cell incubator before use. NUGC-3-P53-Luc cells were collected and washed twice with PBS to remove phenol red and then resuspended in medium to a proper concentration. Tested compound dilutions were transferred into 384 well assay plates (PerkinElmer). A desired number of cells was seeded into the assay plate and cultured for 6 hours at 37° C. cell incubator. Britelite plus Luciferase Assay Reagent were added into each well and the luminescence value was recorded on Envision. The percent of activity value of compounds treated wells was normalized between high control and low control. Wells containing cells and Ref-1a (10 μM) sewved as high control, and wells containing cells and same percentage of DMSO sewved as low control. Activity value (%)=(Luminescence readoutCompound treated−Luminescence readoutLow control)/(Luminescence readoutHigh control−Luminescence readoutLow control)*100%. Then the data were analyzed either by fitting a 4-parameter logistic model or by Excel to calculate EC50 values and the EC50 was the concentration at 50% Activity on the curve.
Background: In a reporter assay the amount or activity of a reporter protein is the signal.

Take `COCC(O)CN1CC[C@@H](Nc2cccc3c(CC(F)(F)F)c(C#CCNc4ccc(S(C)(=O)=O)cc4OC)sc23)[C@@H](F)C1` (mixture of isomers) [Example 6, 1-((Z)-3-fluoro-4-((2-(3-((2-methoxy-4-(methylsulfonyl)phenyl)amino)prop-1-yn-1-yl)-3-(2,2,2-trifluoroethyl)benzo[b]thiophen-7-yl)amino)piperidin-1-yl)-3-methoxypropan-2-ol]: the EC50 in assay [1] was 130 nM; in assay [2] (NUGC-3), 360 nM. The IC50 is 1190 nM in the assay with NUGC3 (P53 Y220C) (Homo sapiens, NUGC-3, 144 h) and 6830 nM with NUGC4 (P53 WT) (Homo sapiens, NUGC-4, 144 h).

As to `COc1cc(P(C)(C)=O)ccc1NCC#Cc1sc2c(NC3CCN(CC4CC4)C[C@@H]3F)cccc2c1CC(F)(F)F` (mixture of isomers) [Example 102, (4-((3-(7-(((Z)-1-(cyclopropylmethyl)-3-fluoropiperidin-4-yl)amino)-3-(2,2,2-trifluoroethyl)benzo[b]thiophen-2-yl)prop-2-yn-1-yl)amino)-3-methoxyphenyl)dimethylphosphine oxide], the EC50 turned out to be 64 nM in assay [1] and 110 nM in assay [2] (NUGC-3). The IC50 with NUGC3 (P53 Y220C) (Homo sapiens, NUGC-3, 144 h) was 810 nM; in the assay with NUGC4 (P53 WT) (Homo sapiens, NUGC-4, 144 h) it was 1920 nM.

In the case of `CNC(=O)c1ccc(NCC#Cc2sc3c(N[C@H]4CCN(C)C[C@H]4F)cccc3c2CC(F)(F)F)c(OC)c1` (racemic) [Example 41, 4-((3-(7-(((3R,4S)-3-fluoro-1-methylpiperidin-4-yl)amino)-3-(2,2,2-trifluoroethyl)benzo[b]thiophen-2-yl)prop-2-yn-1-yl)amino)-3-methoxy-N-methylbenzamide], the half-maximal effective concentration (EC50) in assay [1] worked out at 57 nM; in assay [2] (NUGC-3), 600 nM. In addition, the IC50 in the assay on NUGC3 (P53 Y220C) (Homo sapiens, NUGC-3, 144 h) is 1540 nM; in the assay with NUGC4 (P53 WT) (Homo sapiens, NUGC-4, 144 h), 6140 nM.

Consider `CCP(=O)(CC)c1ccc(NCC#Cc2sc3c(N[C@@H]4CCN(C)C[C@@H]4F)cccc3c2CC(F)(F)F)c(OCF)c1` (racemic) [Example 66, diethyl(4-((3-(7-(((Z)-3-fluoro-1-methylpiperidin-4-yl)amino)-3-(2,2,2-trifluoroethyl)benzo[b]thiophen-2-yl)prop-2-yn-1-yl)amino)-3-(fluoromethoxy)phenyl)phosphine oxide], for which the figures for the EC50 in assay [1] and in assay [2] (NUGC-3) were 60 nM and 120 nM, respectively. The concentration for half-maximal inhibition (IC50) is 820 nM in the assay on NUGC3 (P53 Y220C) (Homo sapiens, NUGC-3, 144 h) and 10300 nM in the assay on NUGC4 (P53 WT) (Homo sapiens, NUGC-4, 144 h).

Turning to `COc1cc(P(C)(C)=O)ccc1NCC#Cc1sc2c(N[C@@H]3CCN(C4CCN(C)CC4)C[C@@H]3F)cccc2c1CC(F)(F)F` (racemic) [Example 72, (Z)-(4-((3-(7-((3-fluoro-1′-methyl-[1,4′-bipiperidin]-4-yl)amino)-3-(2,2,2-trifluoroethyl)benzo[b]thiophen-2-yl)prop-2-yn-1-yl)amino)-3-methoxyphenyl)dimethylphosphine oxide], the EC50 in assay [1] came out at 41 nM; in assay [2] (NUGC-3, 6 h), 210 nM. The IC50 in the assay with NUGC3 (P53 Y220C) (Homo sapiens, NUGC-3, 144 h) came to 430 nM; in the assay on NUGC4 (P53 WT) (Homo sapiens, NUGC-4, 144 h), 4430 nM.

For the molecule `COc1cc(P(C)(C)=O)ccc1NCC#Cc1sc2c(N[C@@H]3CCN(C4CCOCC4)C[C@@H]3F)cccc2c1CC(F)(F)F` (racemic) [Example 73, (Z)-(4-((3-(7-((3-fluoro-1-(tetrahydro-2H-pyran-4-yl)piperidin-4-yl)amino)-3-(2,2,2-trifluoroethyl)benzo[b]thiophen-2-yl)prop-2-yn-1-yl)amino)-3-methoxyphenyl)dimethylphosphine oxide], the EC50 stood at 70 nM in assay [1] and 130 nM in assay [2] (NUGC-3). In addition, the IC50 in the assay on NUGC3 (P53 Y220C) (Homo sapiens, NUGC-3, 144 h) was 770 nM; in the assay with NUGC4 (P53 WT) (Homo sapiens, NUGC-4, 144 h), 3420 nM.

Regarding `COc1cc(P(C)(C)=O)ccc1NCC#Cc1sc2c(N[C@@H]3CCN(C4CC4)C[C@@H]3F)cccc2c1CC(F)(F)F` (racemic) [Example 74, (4-((3-(7-(((Z)-1-cyclopropyl-3-fluoropiperidin-4-yl)amino)-3-(2,2,2-trifluoroethyl)benzo[b]thiophen-2-yl)prop-2-yn-1-yl)amino)-3-methoxyphenyl)dimethylphosphine oxide], the figures for the EC50 in assay [1] and in assay [2] (NUGC-3) were 127 nM and 250 nM, respectively. In addition, the IC50 was 2050 nM in the assay on NUGC3 (P53 Y220C) (Homo sapiens, NUGC-3, 144 h) and 2730 nM with NUGC4 (P53 WT) (Homo sapiens, NUGC-4, 144 h).

`COc1cc(P(C)(C)=O)ccc1NCC#Cc1sc2c(N[C@@H]3CCN(C4COC4)C[C@@H]3F)cccc2c1CC(F)(F)F` (racemic) [Example 75, (4-((3-(7-(((Z)-3-fluoro-1-(oxetan-3-yl)piperidin-4-yl)amino)-3-(2,2,2-trifluoroethyl)benzo[b]thiophen-2-yl)prop-2-yn-1-yl)amino)-3-methoxyphenyl)dimethylphosphine oxide]: the EC50 in assay [1] is 82 nM; in assay [2] (NUGC-3) it was 160 nM. The IC50 stood at 1020 nM in the assay on NUGC3 (P53 Y220C) (Homo sapiens, NUGC-3, 144 h) and 5340 nM with NUGC4 (P53 WT) (Homo sapiens, NUGC-4, 144 h).

`CNC(=O)c1ccc(NCC#Cc2sc3c(N[C@@H]4CCN(C)C[C@@H]4F)cccc3c2CC(F)(F)F)c(OCCOC)c1` (racemic) [Example 81, 4-((3-(7-(((Z)-3-fluoro-1-methylpiperidin-4-yl)amino)-3-(2,2,2-trifluoroethyl)benzo[b]thiophen-2-yl)prop-2-yn-1-yl)amino)-3-(2-methoxyethoxy)-N-methylbenzamide]: the results for the EC50 in assay [1] and in assay [2] (NUGC-3) were 87 nM and 290 nM, respectively. Further, the half-maximal inhibitory concentration (IC50) in the assay with NUGC3 (P53 Y220C) (Homo sapiens, NUGC-3, 144 h) stood at 1680 nM; with NUGC4 (P53 WT) (Homo sapiens, NUGC-4, 144 h) it was 8640 nM.

Turning to `COc1cc(P(C)(C)=O)ccc1NCC#Cc1sc2c(NC3CCN(C)CC3C(F)(F)F)cccc2c1CC(F)(F)F` (racemic) [Example 169, (3-methoxy-4-((3-(7-(((Z)-1-methyl-3-(trifluoromethyl)piperidin-4-yl)amino)-3-(2,2,2-trifluoroethyl)benzo[b]thiophen-2-yl)prop-2-yn-1-yl)amino)phenyl)dimethylphosphine oxide], in assay [1], the EC50 was 70 nM. Further, the IC50 in the assay on NUGC3 (P53 Y220C) (Homo sapiens, NUGC-3, 144 h) came out at 1630 nM; in the assay with NUGC4 (P53 WT) (Homo sapiens, NUGC-4, 144 h), 4330 nM.

As for `COc1cc(P(C)(C)=O)ccc1NCC#Cc1sc2c(NC3CCN(C)CC3C(F)(F)F)cccc2c1CC(F)(F)F` (racemic) [Example 170, (3-methoxy-4-((3-(7-(((E)-1-methyl-3-(trifluoromethyl)piperidin-4-yl)amino)-3-(2,2,2-trifluoroethyl)benzo[b]thiophen-2-yl)prop-2-yn-1-yl)amino)phenyl)di methylphosphine oxide (racemic)], the response in assay [1] was half-maximal at 76 nM (EC50). The IC50 came to 1640 nM with NUGC3 (P53 Y220C) and 3720 nM in the assay on NUGC4 (P53 WT).

Take `CN1CCC(Nc2cccc3c(CC(F)(F)F)c(C#CCNc4ccc(P(C)(C)=O)cc4OC4CC4)sc23)[C@@H](F)C1` (stereo in doubt) [Example 106, (3-cyclopropoxy-4-((3-(7-(((Z)-3-fluoro-1-methylpiperidin-4-yl)amino)-3-(2,2,2-trifluoroethyl)benzo[b]thiophen-2-yl)prop-2-yn-1-yl)amino)phenyl)dimethylphosphine oxide]: the IC50 is 780 nM with NUGC3 (P53 Y220C) (Homo sapiens, NUGC-3, 144 h) and 3800 nM in the assay on NUGC4 (P53 WT) (Homo sapiens, NUGC-4, 144 h). In assay [2] (NUGC-3, 6 h), the EC50 was determined as 90 nM.

For the molecule `CN1CC[C@@H](Nc2cccc3c(CC(F)(F)F)c(C#CCNc4ccc(P(C)(C)=O)cc4-c4cc[nH]n4)sc23)[C@@H](F)C1` [Example 200, (4-((3-(7-(((3S,4R)-3-fluoro-1-methylpiperidin-4-yl)amino)-3-(2,2,2-trifluoroethyl)benzo[b]thiophen-2-yl)prop-2-yn-1-yl)amino)-3-(1H-pyrazol-3-yl)phenyl)dimethylphosphine oxide], the half-maximal effective concentration (EC50) in assay [1] was determined as 25 nM; in assay [2] (NUGC-3, 6 h) it was 60 nM. In addition, the IC50 in the assay on NUGC4 (P53 WT) (Homo sapiens, NUGC-4, 144 h) came to 13100 nM.

For `CN1CC[C@@H](Nc2cccc3c(CC(F)(F)F)c(C#CCNc4ccc(P(C)(C)=O)cc4C(=O)NC4COC4)sc23)[C@@H](F)C1` [Example 217, 5-(dimethylphosphoryl)-2-((3-(7-(((3S,4R)-3-fluoro-1-methylpiperidin-4-yl)amino)-3-(2,2,2-trifluoroethyl)benzo[b]thiophen-2-yl)prop-2-yn-1-yl)amino)-N-(oxetan-3-yl)benzamide], the IC50 in the assay on NUGC3 (P53 Y220C) (Homo sapiens, NUGC-3, 144 h) came to 320 nM; in the assay with NUGC4 (P53 WT) (Homo sapiens, NUGC-4, 144 h), 15400 nM. The EC50 in assay [2] (NUGC-3) stood at 150 nM.
